According to US12447186B2, “Traditional Chinese medicine compound composition with anti-anxiety effect and preparation method and applications thereof” (Chenland Nutritionals Inc., priority 2020, dated 2025):

Tests used:
mice [1] = experiment: Open field test; format: in vivo; conditions: 6 min, Diazepam 2 mg/kg
Procedure: (§1) After the mice arrived, they were acclimatized for a week to enter the experiment. There were 12 mice in each group.
(§2) The normal group mice were gavaged with the same volume of purified water, and the gavage doses of other groups were illustrated in the results table section below. The mice were gavaged every morning at fixed time (9:00) with a gavage volume of 0.1 ml·10 g^−1. the administration lasted for one month, and behavioral assays were performed 1 h after the last gavage.
The test was performed inside an open field box with 50 cm long, 50 cm wide, and 50 cm deep. The bottom of the open field box was equally divided into nine squares, with the right middle area being the central area and the remaining area being the peripheral area. The bottom and surrounding of the open field box were all white. The test was performed in a quiet weak red light environment. At the beginning, the mice were placed in the center of the open field box, and the activity within 6 minutes was observed. Total running distance, running distance in central area and number of entries into central area of the mice were recorded.

mice [2] = experiment: Light-dark box test; format: in vivo; conditions: gavage one month, 5 min, Diazepam 2 mg/kg
Procedure: as §1, §2
The light and dark box is composed of an integral box which is divided into two compartments (light area and dark area) of the same size (L×w×H=25 cm×25 cm×30 cm) by a middle gate (6.5 cm×6.5 cm). The light area is illuminated by white light, and the dark area is illuminated by red light. At the beginning of the test, each mouse was placed in the center of the light area facing the partition wall, and the middle gate was removed. Once four claws of one mouse entered the compartment, it was recorded as one entry. Supermaze software was used to record the distance in light area, retention time in light area and number of entries into light area in 5 minutes.

`CN1C(=O)CN=C(c2ccccc2)c2cc(Cl)ccc21` [Diazepam] was tested, and the Total running distance (mice [1]; gavage daily for one month, 1 h after last gavage) was 29927 ± 2380, the “Number of entries into central area” value (mice [1]; gavage one month) was 12.78 ± 1.498 and the “Running distance in central area” value (mice [1]; gavage one month) was 2168 ± 218.6. For the same compound, the “Distance in light area” value (mice [2]) was 18141 ± 1011 and the “Number of entries into light area” value (mice [2]) was 18.92 ± 1.540.
